Experimental data published in patent publication US20210292807A1, “METHOD FOR TESTING ANTIMICROBIAL SUSCEPTIBILITY” (priority 2017, published 2021).
“And” between values parts separate entries of the source, which are not always exact repeats. Equal values may be shown once. Read-outs that look alike come from different tables or passages of the source.

Tested on: Klebsiella isolates
Test: Acoustic flow cytometry-assisted susceptibility test (FAST), MICFAST and S/NS, Klebsiella isolates
Assay type: cell-based, Klebsiella pneumoniae, Klebsiella oxytoca
Procedure: A 1 mL aliquot of bacterial suspension was centrifuged, washed and resuspended in 1 mL filtered Hank's Buffered Salt Solution (HBSS; comprising about 0.137 M NaCl, about 5.4 mM KCl, about 0.25 mM Na2HPO4, about 0.1 g Glucose, about 0.44 mM KH2PO4, 1.3 mM CaCl2), 1.0 mM MgSO4, about 1.3 mM CaCl2), 1.0 mM MgSO4, and about 4.2 mM NaHCO3) and diluted in series (e.g., in a 1:10 serial dilution) to a final 1:1000 dilution.
One μL (microliter) of SYTO 9 stain (e.g., ThermoFisher Scientific) working stock solution was added to the final dilution at a final concentration of 5 μM and incubated for 5 minutes before counting bacterial events by acoustic flow cytometer (AFC) (Attune, ThermoFisher, Eugene, Oreg., USA), which was used to prepare a standardised inoculum density for susceptibility testing.
An aliquot of bacterial suspension was added to 50 mL centrifuge tubes (Corning, N.Y.) containing 9 mL of pre-warmed (37° C.) filtered MHB to produce a final density of 5×10^5-1×10^6 bacteria per mL. This suspension was incubated at 37° C. with shaking at 100 RPM for 30 minutes to obtain an actively dividing culture. An aliquot of antibiotic working solution from the previously described dilution series (appropriate to the concentration tested) was then added to each tube before a further 30-minute incubation with shaking, during which time a microbroth dilution (MBD) plate was prepared for overnight incubation at 37° C. as previously described in Clinical and Laboratory Standards Institute (2015) Performance Standards for Antimicrobial Susceptibility Testing: Informational Supplement. CLSI document M100-S25. Clinical and Laboratory Standards Institute, 950, West Valley Road, Suite 2500, Wayne, Pa., 19087, USA.
One millilitre of bacterial suspension from each antibiotic concentration was harvested by centrifugation at 7800×g for 5 minutes, washed and diluted 1:10 in filtered HBSS in a light-impermeable microcentrifuge tube, then stained with SYTO 9 stain at a final concentration of 5 μM, and incubated for 5 min before AFC sampling. Hoechst 33342 dye (NucBlue, Thermo Fisher Scientific, Eugene, Oreg., USA) and a SYTO 9/propidium iodide (PI) combination (Thermo Fisher Scientific) were used in a series of replicate experiments.
The acoustic flow cytometer employed was Attune acoustic flow cytometer (Thermo Fisher Scientific), having installed therein a 488 nm blue laser with a 530/30 nm filter on the photomultiplier tube for measuring fluorescence of cells assayed. Alternatively, the Attune NxT acoustic flow cytometer (Thermo Fisher Scientific) can be employed. AFC was calibrated at the beginning of each acquisition session using fluorescently labelled size calibration beads, in accordance with the manufacturer's instructions (ThermoFisher Scientific). The AFC settings were as follows: Forward Scatter (FSC) voltage 3100, FSC threshold 4×1000 AND, blue laser 1 (BL1—530/30 nm) voltage 1900, BL1 threshold 1×1000 AND, high sensitivity, flow rate 25 μL/minute, and an acquisition volume of 125 μL. Acquisition was halted after either collection of 20,000 events across all gates, or after 3 minutes, with each sample acquired in technical triplicate.
Collected data was exported in the FCS 3.0 file format and analysed in Flow v10.0 (FlowJo LLC, Ashland, Oreg., USA) by a single user, blinded to the MIC results by BMD (MICBMD).
Subsequent to quantitative MICFAST determination, the acoustic flow cytometer data were re-analysed in silico to produce a limited sub-set for qualitative susceptibility determination. The six antibiotic dilutions (0 mg/L, 0.25 mg/L, 1 mg/L, 2 mg/L, 4 mg/L and 16 mg/L) most relevant to qualitative susceptibility assessment were used. In silico analysis was restricted to the first technical triplicate of each recorded sample. Gating strategies remained consistent, with the addition of a gate restricting analysis to only those events recorded in the first 60 seconds of acquisition.

[1] = K. pneumoniae isolate 18397, biological replicates
[2] = K. pneumoniae isolate 43292, biological replicates
[3] = K. pneumoniae isolate 43358, biological replicates
[4] = K. pneumoniae isolate 44271, biological replicates
[5] = K. pneumoniae isolate ATCC 700603, biological replicates
[6] = K. pneumoniae isolate ATCC BAA1705, biological replicates
[7] = K. pneumoniae isolate K1, biological replicates
[8] = K. pneumoniae isolate K14, biological replicates
[9] = K. pneumoniae isolate KS11, biological replicates
[10] = isolate 3000770, England, NDM-1
[11] = isolate 3040820, England, pAmpC
[12] = isolate ATCC BAA 1705, USA, KPC
[13] = isolate K16, Australia, IMP - 4
[14] = isolate K23, Australia, IMP - 4
[15] = isolate KS1, Sri Lanka, OXA-181
[16] = isolate KS2, Sri Lanka, OXA-181
[17] = isolate KS17, Sri Lanka, OXA-181
[18] = isolate KS23, Sri Lanka, OXA-181

## C[C@@H](O)[C@H]1C(=O)N2C(C(=O)O)=C(S[C@@H]3CN[C@H](C(=O)N(C)C)C3)[C@H](C)[C@H]12 [meropenem]
K. pneumoniae ATCC 700603 (carbapenem susceptible control), limited clinical screen concentrations
  MICFAST: ≤0.25
K. pneumoniae ATCC BAA1705 (carbapenem resistant control), limited clinical screen concentrations
  MICFAST: >16
[1]
  FAST S/NS: S (S: MIC ≤2 mg/L)
  MICFAST: ≤0.25 mg/L
[2]
  FAST S/NS: S (S: MIC ≤2 mg/L)
  MICFAST: ≤0.25 mg/L
[3]
  FAST S/NS: S (S: MIC ≤2 mg/L)
  MICFAST: ≤0.25 mg/L
[4]
  FAST S/NS: S (S: MIC ≤2 mg/L)
  MICFAST: 0.5 mg/L
[5]
  FAST S/NS: S (S: MIC ≤2 mg/L)
  MICFAST: ≤0.25 mg/L
[6]
  FAST S/NS: NS (NS: MIC >2 mg/L)
  MICFAST: 8 mg/L
[7]
  FAST S/NS: NS (NS: MIC >2 mg/L)
  MICFAST: 64 mg/L (2×) and 32 mg/L
[8]
  FAST S/NS: NS (NS: MIC >2 mg/L)
  MICFAST: 256 mg/L
K. pneumoniae isolate K16 (IMP-4), rough colony variant
  MICFAST: 64 mg/L
K. pneumoniae isolate K16 (IMP-4), smooth colony variant
  MICFAST: 2 mg/L
K. pneumoniae isolate K16, subculture of Day 1 meropenem-exposed culture, read-out: MIC by FAST on Day 2
  MIC: 4 µg/mL
K. pneumoniae isolate KS1, biological replicates
  MICFAST: 4 mg/L and 1 mg/L and 2 mg/L
[9]
  FAST S/NS: S (S: MIC ≤2 mg/L)
  MICFAST: 1 mg/L (2×) and 2 mg/L
K. pneumoniae susceptible type strain ATCC 700603, read-out: isolate's MIC (new contouring focus formed, FIG. 3A)
  MIC: 0.25 µg/mL
Highly resistant clinical K. pneumoniae strain K8, clinically relevant meropenem concentrations
  susceptibility-associated signature by AFC bi-axial plot (FIG. 3B): absence of susceptibility-associated signature
Isolate 194, Sweden, VIM
  FAST S/NS: NS (NS = MIC >2 mg/L)
  MICFAST: 16 mg/L
Isolate 374, Sweden, VIM
  FAST S/NS: NS (NS = MIC >2 mg/L)
  MICFAST: 32 mg/L
Isolate 3354, Australia
  FAST S/NS: S (S = MIC ≤2 mg/L)
  MICFAST: 0.5 mg/L
Isolate 10924, Sweden, KPC
  FAST S/NS: S (S = MIC ≤2 mg/L)
  MICFAST: 0.5 mg/L
Isolate 18397, Australia
  FAST S/NS: S (S = MIC ≤2 mg/L)
  MICFAST: ≤0.25 mg/L
Isolate 43288, Australia
  FAST S/NS: S (S = MIC ≤2 mg/L)
  MICFAST: ≤0.25 mg/L
Isolate 43292, Australia
  FAST S/NS: S (S = MIC ≤2 mg/L)
  MICFAST: ≤0.25 mg/L
Isolate 43358, Australia
  FAST S/NS: S (S = MIC ≤2 mg/L)
  MICFAST: ≤0.25 mg/L
Isolate 43854, Australia
  FAST S/NS: S (S = MIC ≤2 mg/L)
  MICFAST: ≤0.25 mg/L
Isolate 44271, Australia
  FAST S/NS: S (S = MIC ≤2 mg/L)
  MICFAST: 0.5 mg/L
Isolate 51575, Sweden, ESBL
  FAST S/NS: S (S = MIC ≤2 mg/L)
  MICFAST: ≤0.25 mg/L
Isolate 70708, Sweden, KPC
  FAST S/NS: NS (NS = MIC >2 mg/L)
  MICFAST: 32 mg/L
Isolate 71076, Sweden, KPC
  FAST S/NS: NS (NS = MIC >2 mg/L)
  MICFAST: 32 mg/L
Isolate 200822, Sweden, KPC
  FAST S/NS: NS (NS = MIC >2 mg/L)
  MICFAST: 8 mg/L
Isolate 270902, England
  FAST S/NS: S (S = MIC ≤2 mg/L)
  MICFAST: ≤0.25 mg/L
Isolate 500638, Sweden, pAmpC
  FAST S/NS: S (S = MIC ≤2 mg/L)
  MICFAST: 2 mg/L
Isolate 515870, Sweden, ESBL
  FAST S/NS: S (S = MIC ≤2 mg/L)
  MICFAST: ≤0.25 mg/L
Isolate 2440606, England
  FAST S/NS: S (S = MIC ≤2 mg/L)
  MICFAST: ≤0.25 mg/L
Isolate 2880622, England
  FAST S/NS: S (S = MIC ≤2 mg/L)
  MICFAST: ≤0.25 mg/L
Isolate 2880654, England, KPC
  FAST S/NS: NS (NS = MIC >2 mg/L)
  MICFAST: 32 mg/L
Isolate 2890369, England
  FAST S/NS: S (S = MIC ≤2 mg/L)
  MICFAST: 0.5 mg/L
Isolate 2980639, England
  FAST S/NS: S (S = MIC ≤2 mg/L)
  MICFAST: 0.5 mg/L
[10]
  FAST S/NS: NS (NS = MIC >2 mg/L)
  MICFAST: 8 mg/L
[11]
  FAST S/NS: S (S = MIC ≤2 mg/L)
  MICFAST: ≤0.25 mg/L
Isolate 3080800, England, KPC
  FAST S/NS: NS (NS = MIC >2 mg/L)
  MICFAST: 32 mg/L
Isolate A1, Norway
  FAST S/NS: S (S = MIC ≤2 mg/L)
  MICFAST: ≤0.25 mg/L
Isolate A2, Norway
  FAST S/NS: S (S = MIC ≤2 mg/L)
  MICFAST: ≤0.25 mg/L
Isolate A3, Norway
  FAST S/NS: S (S = MIC ≤2 mg/L)
  MICFAST: ≤0.25 mg/L
Isolate A4, Norway
  FAST S/NS: S (S = MIC ≤2 mg/L)
  MICFAST: ≤0.25 mg/L
Isolate A7, Norway
  FAST S/NS: S (S = MIC ≤2 mg/L)
  MICFAST: ≤0.25 mg/L
Isolate A13, Norway
  FAST S/NS: S (S = MIC ≤2 mg/L)
  MICFAST: ≤0.25 mg/L
Isolate A15, Norway
  FAST S/NS: S (S = MIC ≤2 mg/L)
  MICFAST: ≤0.25 mg/L
Isolate A16, Norway
  FAST S/NS: S (S = MIC ≤2 mg/L)
  MICFAST: ≤0.25 mg/L
Isolate A20, Norway, NDM-1
  FAST S/NS: NS (NS = MIC >2 mg/L)
  MICFAST: 16 mg/L
Isolate ATCC 700603, USA
  FAST S/NS: S (S = MIC ≤2 mg/L)
  MICFAST: ≤0.25 mg/L
[12]
  FAST S/NS: NS (NS = MIC >2 mg/L)
  MICFAST: 8 mg/L
Isolate ATCC BAA 1706, USA
  FAST S/NS: S (S = MIC ≤2 mg/L)
  MICFAST: ≤0.25 mg/L
Isolate K1, Australia, OXA-181
  FAST S/NS: NS (NS = MIC >2 mg/L)
  MICFAST: 32 mg/L
Isolate K2, Australia, OXA-181
  FAST S/NS: NS (NS = MIC >2 mg/L)
  MICFAST: 32 mg/L
Isolate K8, Australia, NDM-1
  FAST S/NS: NS (NS = MIC >2 mg/L)
  MICFAST: >256 mg/L
Isolate K14, Australia, KPC
  FAST S/NS: NS (NS = MIC >2 mg/L)
[13]
  FAST S/NS: S (S = MIC ≤2 mg/L)
  MICFAST: 2 mg/L
[14]
  FAST S/NS: S (S = MIC ≤2 mg/L)
  MICFAST: 0.5 mg/L
[15]
  FAST S/NS: S (S = MIC ≤2 mg/L)
  MICFAST: 2 mg/L
[16]
  FAST S/NS: NS (NS = MIC >2 mg/L)
  MICFAST: 16 mg/L
[17]
  FAST S/NS: NS (NS = MIC >2 mg/L)
  MICFAST: 64 mg/L
[18]
  FAST S/NS: NS (NS = MIC >2 mg/L)
  MICFAST: 64 mg/L
Isolate N17, Sweden, NDM-1
  FAST S/NS: NS (NS = MIC >2 mg/L)
  MICFAST: 32 mg/L
